Assay results: patent US8153809B2, “Dihydropyridone ureas as P2X7 modulators” (Roche Palo Alto LLC, priority 2008, dated 2012)

Target: T1, P2X7 (UniProt Q99572)
T1 sequence (Q99572 1-595): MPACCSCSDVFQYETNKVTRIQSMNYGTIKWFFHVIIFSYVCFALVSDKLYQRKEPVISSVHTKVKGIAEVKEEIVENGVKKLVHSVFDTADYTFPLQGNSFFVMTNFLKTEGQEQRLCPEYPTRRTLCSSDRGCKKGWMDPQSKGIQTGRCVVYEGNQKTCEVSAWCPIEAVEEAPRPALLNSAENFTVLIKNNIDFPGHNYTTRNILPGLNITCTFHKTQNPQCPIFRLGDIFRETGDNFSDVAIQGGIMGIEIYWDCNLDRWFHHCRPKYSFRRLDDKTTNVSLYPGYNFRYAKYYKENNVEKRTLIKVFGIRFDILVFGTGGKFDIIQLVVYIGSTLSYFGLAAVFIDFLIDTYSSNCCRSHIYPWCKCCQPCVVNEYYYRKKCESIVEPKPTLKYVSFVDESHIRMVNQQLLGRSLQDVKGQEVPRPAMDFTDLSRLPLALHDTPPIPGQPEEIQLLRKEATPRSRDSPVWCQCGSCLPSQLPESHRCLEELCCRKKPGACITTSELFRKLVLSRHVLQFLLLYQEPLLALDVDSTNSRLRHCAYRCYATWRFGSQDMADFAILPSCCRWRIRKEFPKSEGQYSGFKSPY
Assay: pIC50 values for P2X7 (Table 1)
Assay type: cell-based
How it was run: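 Fluo-3-loaded 1321N1 cells expressing human P2X7 or HEK293 cells expressing rat P2X7, preincubated 20 min at room temperature with antagonist in HBSS/Hepes/probenecid buffer with 2 mM CaCl2. BzATP agonist at 100 μM final (human) or 5 μM final (rat); fluorescence read 5 min, peak normalized to 5 μM ionomycin response.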

SMILES	pIC50
Cc1cc2ccn(CCO)c2cc1NC(=O)N1C=CC(=O)C[C@H]1c1ccc(F)cc1 [Compound 156, (S)-2-(4-Fluoro-phenyl)-4-oxo-3,4-dihydro-2H-pyridine-1-carboxylic acid [1-(2-hydroxy-ethyl)-5-methyl-1H-indol-6-yl]-amide]	8.155
O=C1C=CN(C(=O)Nc2cc(F)c(F)cc2Br)C(c2ccc(F)cc2)C1 (stereo not drawn) [Compound 157, 2-(4-Fluoro-phenyl)-4-oxo-3,4-dihydro-2H-pyridine-1-carboxylic acid (2-bromo-4,5-difluoro-phenyl)-amide]	6.43
Cc1ccc(NC(=O)N2C=CC(=O)C[C@H]2c2ccc(F)cc2)cc1C [Compound 158, (S)-2-(4-Fluoro-phenyl)-4-oxo-3,4-dihydro-2H-pyridine-1-carboxylic acid (3,4-dimethyl-phenyl)-amide]	7.01
